# How the values were obtained:
# Assay type in all cases: in vivo
# [1] = test system: cotton aphids (aphis gossypii); test: Insecticidal test for cotton aphid, foliar spray on infested squash cotyledons; details: 50 ppm spray, graded after 3 days, versus untreated check
# Method: Insecticidal Test for Cotton Aphid (Aphis gossypii)
# To prepare spray solutions, 2 mg of each test compound was dissolved into 2 mL of a 90:10 acetone:ethanol solvent. This 2 mL of chemical solution was added to 38 mL of water containing 0.05% Tween 20 surfactant to produce a 50 ppm spray solution.
# Squash cotyledons were infested with cotton aphid (all life stages16-20 hours prior to application of spray solution. The solution was sprayed on both sides of each infested squash cotyledon (0.5 mL×2 each side with a sweeping action using a total of 2 mL of spray solution. The plants were allowed to air dry and held for 3 days in a controlled room at 26° C. and 40% RH after which time the test was graded. Grading was by actual count using a dissecting microscope and comparison of test counts to the untreated check. Results are given in Table 1 as percent control based on population reduction versus the untreated.
# [2] = test system: twospotted spider mite (tetranychus uriticae); test: Two-spotted spider mite test, ovicide method on cotton leaf discs; details: leaf disc dip, 6 days, hatched larvae versus untreated discs
# Method: Insecticidal Test for Two-spotted Spider Mite (Tetranychus urticae)
# Ten adult female two-spotted spider mites were placed on eight 2.2 cm leaf discs of cotton leaf, allowed to oviposit over 24 hours, and thereafter removed. The leaf discs were immersed in 100 ppm test solutions for 3 seconds, then allowed to dry with sixteen discs left untreated as a negative control. Discs were placed on an agar substrate and held at 24° C. and 90% relative humidity for 6 days.
# [3] = test system: sweetpotato whitefly (bemisia tabaci); test: Sweetpotato whitefly test on cotton plants under laboratory conditions; details: 800 ppm (table footnote), spray on cotton plants with eggs, 21 days, spent pupal cases versus solution-only plants
# Method: Evaluation of Tests Compounds on Sweetpotato Whitefly (Bemisia tabacia) Under Laboratory Conditions
# Four mg of each test compound was dissolved by adding 5 ml of a 90:10 acetone:ethanol solvent mixture to the vial containing the sample compound. […]
# Five-week-old cotton plants reared in a greenhouse were stripped of all foliage except for the two uppermost true leaves that were greater than 5 cm in diameter. These plants were then placed into a laboratory colony of whiteflies for three days for oviposition by the colony females. All whiteflies were then removed from the test plants with pressurized air. The spray solution was then applied to the test plants with a hand-held syringe fitted with hollow cone nozzle. One mL spray solution was applied to each leaf top and bottom for a total of 4 mL per plant. Four replications of each test compound utilized a total of 16 mL spray solution. Plants were air dried and then placed in a holding chamber (26° C. and 40% RH for 21 days. Compound efficacy was evaluated by counting, under a dissecting microscope, the number of spent pupal cases per leaf. A spent pupal case represents a whitefly egg that has undergone full development to achieve adult status, thus indicating lack of control.
# Percent control based on reduction of spent pupal cases of a test compound compared to solution-only (no test compound sprayed plants is reported in Table 1.
structure (smiles),measurement,setting,value
Cn1nc(-c2c(F)cccc2F)nc1-c1snc(-c2ccc(Cl)cc2)c1Br [Compound 11],CA: activity at 50 ppm against cotton aphids (rating of % mortality / percent control),[1],A (91-100)
same,TSSM: activity at 100 ppm against twospotted spider mite (rating of % mortality / percent control),[2],A (91-100)
same,WF: activity at 800 ppm against sweetpotato whitefly (rating of % mortality / percent control),[3],G (Inactive)
Cn1nc(-c2c(F)cccc2F)nc1-c1cc(Br)c(Br)n1C [Compound 86],CA: activity at 50 ppm against cotton aphids (rating of % mortality / percent control),[1],A (91-100)
same,TSSM: activity at 100 ppm against twospotted spider mite (rating of % mortality / percent control),[2],G (Inactive)
same,WF: activity at 800 ppm against sweetpotato whitefly (rating of % mortality / percent control),[3],G (Inactive)
Cn1nc(-c2c(F)cccc2F)nc1-c1csc(-c2cccs2)n1 [Compound 50],CA: activity at 50 ppm against cotton aphids (rating of % mortality / percent control),[1],A (91-100)
same,TSSM: activity at 100 ppm against twospotted spider mite (rating of % mortality / percent control),[2],G (Inactive)
same,WF: activity at 800 ppm against sweetpotato whitefly (rating of % mortality / percent control),[3],G (Inactive)
Cn1nc(-c2c(F)cccc2F)nc1-c1snc(C#N)c1Br [Compound 4],CA: activity at 50 ppm against cotton aphids (rating of % mortality / percent control),[1],A (91-100)
same,TSSM: activity at 100 ppm against twospotted spider mite (rating of % mortality / percent control),[2],G (Inactive)
same,WF: activity at 800 ppm against sweetpotato whitefly (rating of % mortality / percent control),[3],G (Inactive)
Cc1cnsc1-c1nc(-c2c(F)cccc2Cl)nn1C [Compound 3],CA: activity at 50 ppm against cotton aphids (rating of % mortality / percent control),[1],B (81-90)
same,TSSM: activity at 100 ppm against twospotted spider mite (rating of % mortality / percent control),[2],A (91-100)
same,WF: activity at 800 ppm against sweetpotato whitefly (rating of % mortality / percent control),[3],G (Inactive)
Cn1nc(-c2c(F)cccc2F)nc1-c1ccc(Br)n1C [Compound 85],CA: activity at 50 ppm against cotton aphids (rating of % mortality / percent control),[1],B (81-90)
same,TSSM: activity at 100 ppm against twospotted spider mite (rating of % mortality / percent control),[2],E (51-60)
same,WF: activity at 800 ppm against sweetpotato whitefly (rating of % mortality / percent control),[3],G (Inactive)

# Reference: patent publication US6413997B1, “3-(substituted phenyl)-5-(substituted heterocyclyl)-1,2,4-triazole compounds” (priority 1998, dated 2002)
